Experimental data reported in ChEMBL document CHEMBL4334535, “Novel Pyrazolyl-dihydroisoquinolines as Positive Allosteric Modulator of the Dopamine D1 Receptor” (ACS Med Chem Lett, 2020).
Activity calls are given as the source filed them. The rule behind the calls is not given here.

Experiments:
D(1A) dopamine receptor [1] = biological target: T1, D(1A) dopamine receptor (Homo sapiens, UniProt P21728); assay: Positive allosteric modulation of human D1 receptor expressed in HEK293 assessed as cAMP production incubated for 60 mins by HTRF assay; type: functional, cell-based
T1 sequence (P21728 whole entry): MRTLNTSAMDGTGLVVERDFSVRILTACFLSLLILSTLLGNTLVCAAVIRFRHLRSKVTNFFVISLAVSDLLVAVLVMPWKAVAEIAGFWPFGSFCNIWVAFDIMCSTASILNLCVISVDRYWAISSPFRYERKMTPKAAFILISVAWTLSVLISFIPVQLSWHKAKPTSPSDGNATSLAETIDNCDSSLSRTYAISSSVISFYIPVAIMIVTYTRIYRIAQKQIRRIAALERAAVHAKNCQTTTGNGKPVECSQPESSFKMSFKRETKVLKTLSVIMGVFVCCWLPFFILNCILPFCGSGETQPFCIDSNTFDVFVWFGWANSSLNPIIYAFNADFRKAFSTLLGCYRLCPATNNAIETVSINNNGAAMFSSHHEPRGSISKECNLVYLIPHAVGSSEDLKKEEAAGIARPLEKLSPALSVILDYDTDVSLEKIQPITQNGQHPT

D(1A) dopamine receptor [2] = biological target: T1, D(1A) dopamine receptor; assay: Potentiation of dopamine-induced positive allosteric modulation of human D1 receptor expressed in HEK293 cells assessed as cAMP production measured after 60 to 90 mins by HTRF assay relative to control; type: functional, cell-based; design: concentration or dose not given beside the values
Mus musculus = assay: Increase in basal locomotor activity in transgenic knockout C57BL/6 mouse expressing human D1 receptor mouse at 10 ml/kg, po measured every 10 mins for 60 mins by automated system analysis; type: functional, organism-based

Structure (SMILES)	EC50 (D(1A) dopamine receptor [1])	Activity (Mus musculus)	Activity (D(1A) dopamine receptor [2])
C[C@H]1c2cccc(-c3cn[nH]c3)c2C[C@H](CO)N1C(=O)Cc1ccc(F)cc1Cl	–	–	77.1%
C[C@H]1c2cccc(-c3cn[nH]c3)c2C[C@H](CO)N1C(=O)Cc1c(F)cccc1Cl	–	–	81.5%
C[C@H]1c2cccc(-c3cn[nH]c3)c2C[C@H](CO)N1C(=O)Cc1c(F)cccc1F	–	–	78.1%
C[C@H]1c2cccc(-c3cnn(C)c3)c2C[C@H](CO)N1C(=O)Cc1ccccc1Cl	–	–	80.4%
C[C@H]1c2cccc(-c3cn[nH]c3)c2C[C@H](CO)N1C(=O)Cc1cc(F)ccc1Cl	–	–	79.8%
CCn1cc(-c2cccc3c2C[C@H](CO)N(C(=O)Cc2c(Cl)cccc2Cl)[C@H]3C)cn1	–	–	91.2%
C[C@H]1c2cccc(-c3cnn(C4CC4)c3)c2C[C@H](CO)N1C(=O)Cc1c(Cl)cccc1Cl	–	–	88.1%

Now from value to compound, other results behind:

EC50 (D(1A) dopamine receptor [1])	Activity (Mus musculus)	Structure (SMILES)	Activity (D(1A) dopamine receptor [2])
18.3 nM	–	C[C@H]1c2cccc(-c3cnn(CCO)c3)c2C[C@H](CO)N1C(=O)Cc1c(Cl)cccc1Cl	79.1%
–	Active	C[C@H]1c2cccc(-c3cn[nH]c3)c2C[C@H](CO)N1C(=O)Cc1c(Cl)cccc1Cl	75.9%
–	Active	C[C@H]1c2cccc(-c3cnn(C)c3)c2C[C@H](CO)N1C(=O)Cc1c(Cl)cccc1Cl	91.4%
